Assay results: patent US9855268B2, “Triazolo[4,5-d]pyrimidine derivatives” (Merck Patent GmbH, priority 2013, dated 2018)

Tests used:
GCN2 [1] = target: T1, GCN2 (Homo sapiens, UniProt Q9P2K8); test: Cellular assay of GCN2 activity (phospho-eIF2alpha immunocytochemistry after tryptophanol); format: cell-based; set-up: endogenous in cells; host or cells: U2OS; details: Human U2OS cells, 2 h compound, 600 μM tryptophanol 30 min
Outline: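 Readout in human U2OS cells: compound pretreatment 2 h, then tryptophanol (600 μM final) for 30 min to trigger GCN2 signalling. Fixed, permeabilised cells quantified by immunocytochemistry for phosphorylation, normalised to DMSO controls as % effect; IC50 from concentration-response.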
Target sequence in this assay (Q9P2K8 whole entry): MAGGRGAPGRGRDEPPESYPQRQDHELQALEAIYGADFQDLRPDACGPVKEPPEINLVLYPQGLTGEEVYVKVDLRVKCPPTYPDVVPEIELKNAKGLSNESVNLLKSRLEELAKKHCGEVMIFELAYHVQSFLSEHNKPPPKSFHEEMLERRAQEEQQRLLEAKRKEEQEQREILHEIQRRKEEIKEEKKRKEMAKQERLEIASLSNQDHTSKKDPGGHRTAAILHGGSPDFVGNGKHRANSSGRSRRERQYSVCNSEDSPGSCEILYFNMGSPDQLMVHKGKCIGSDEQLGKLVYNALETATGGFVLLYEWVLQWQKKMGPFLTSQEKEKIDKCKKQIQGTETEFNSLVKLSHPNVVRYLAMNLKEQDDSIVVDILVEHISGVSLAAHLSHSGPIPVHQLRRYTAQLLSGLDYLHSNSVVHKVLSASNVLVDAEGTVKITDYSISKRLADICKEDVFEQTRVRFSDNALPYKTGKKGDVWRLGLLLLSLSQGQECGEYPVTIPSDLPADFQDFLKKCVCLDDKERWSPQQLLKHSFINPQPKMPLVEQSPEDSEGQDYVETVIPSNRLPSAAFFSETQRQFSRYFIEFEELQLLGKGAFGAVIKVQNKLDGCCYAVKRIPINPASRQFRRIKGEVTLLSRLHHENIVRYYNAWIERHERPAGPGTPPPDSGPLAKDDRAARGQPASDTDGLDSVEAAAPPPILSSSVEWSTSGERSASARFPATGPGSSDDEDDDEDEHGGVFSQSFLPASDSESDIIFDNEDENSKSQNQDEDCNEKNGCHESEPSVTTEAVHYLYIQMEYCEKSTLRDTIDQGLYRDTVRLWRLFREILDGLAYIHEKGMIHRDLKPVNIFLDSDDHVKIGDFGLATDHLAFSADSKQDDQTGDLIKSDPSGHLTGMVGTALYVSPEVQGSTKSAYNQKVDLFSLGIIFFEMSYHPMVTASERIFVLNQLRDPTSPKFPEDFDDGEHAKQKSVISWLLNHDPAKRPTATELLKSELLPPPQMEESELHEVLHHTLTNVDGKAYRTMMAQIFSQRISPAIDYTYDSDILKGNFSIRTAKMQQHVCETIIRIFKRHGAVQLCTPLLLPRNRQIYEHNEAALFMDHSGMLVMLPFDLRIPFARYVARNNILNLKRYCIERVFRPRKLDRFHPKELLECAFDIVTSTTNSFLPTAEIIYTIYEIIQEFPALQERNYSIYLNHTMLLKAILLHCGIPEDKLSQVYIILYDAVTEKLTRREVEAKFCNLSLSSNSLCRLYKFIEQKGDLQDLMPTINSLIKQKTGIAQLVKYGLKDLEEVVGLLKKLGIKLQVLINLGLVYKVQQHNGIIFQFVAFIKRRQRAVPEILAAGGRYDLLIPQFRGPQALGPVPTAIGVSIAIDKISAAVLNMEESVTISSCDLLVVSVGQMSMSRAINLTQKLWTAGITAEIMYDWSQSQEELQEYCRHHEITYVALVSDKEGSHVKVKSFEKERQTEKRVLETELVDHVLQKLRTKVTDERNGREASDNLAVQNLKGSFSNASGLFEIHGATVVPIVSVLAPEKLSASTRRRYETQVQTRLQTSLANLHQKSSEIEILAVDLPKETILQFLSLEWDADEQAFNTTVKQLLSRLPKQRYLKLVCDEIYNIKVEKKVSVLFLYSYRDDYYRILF

GSK3α(h) = GSK3α(h) (Homo sapiens, UniProt P49840); test: GSK3α radiometric kinase assay (33P-ATP, phospho GS2 peptide); format: biochemical; details: read-out: IC50 GSK3α (enzyme assay)
Outline: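 Human GSK3α incubated with 20 μM phospho-GS2 peptide in 8 mM MOPS pH 7,0, 10 mM Mg-acetate and [γ-33P]ATP (concentration as required), started with MgATP. After 40 minutes at room temperature, stopped with phosphoric acid; 33P incorporation measured by filtermat spotting and scintillation counting.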

GCN2 [2] = target: T1, GCN2; test: GCN2 enzyme assay (TR-FRET Lanthascreen, GFP-eIF2alpha phosphorylation); format: biochemical; details: 10 μM ATP, 80 nM GFP-eIF2a, 30 nM GCN2
Outline: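 Kinase reaction with 10 μM ATP and 80 nM GFP-labelled eIF2alpha substrate at room temperature, stopped with EDTA. Phospho-eIF2alpha detected by TR-FRET between antibody and GFP-substrate, excitation at 340 nm.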
Target sequence in this assay (Q9P2K8 whole entry, species assumed): as the sequence (Q9P2K8 whole entry) above

GSK3β(h) = GSK3β(h) (Homo sapiens, UniProt P49841); test: GSK3β radiometric kinase assay (33P-ATP, phospho GS2 peptide); format: biochemical; details: read-out: IC50 GSK3β (enzyme assay)
Procedure: GSK3β(h) is incubated with 8 mM MOPS pH 7,0, 0,2 mM EDTA, 20 μM
[…](p)EDEEE (phosphor GS2 peptide), 10 mM Mg-acetate and [gamma-33P-ATP](specific activity approx. 500 cpm/Pmol, concentration as required). The reaction is initiated by the addition of the MgATP. After incubation for 40 minutes at the room temperature, the Reaction is stopped by the addition of 3% phosphoric acid solution. 10 μL of reaction is then spotted onto a P30 filtermat and washed three times for 5 minutes in 50 mM phosphoric acid and once in methanol prior to drying and scintillation counting.

GSK3β(h), sequence (P49841 whole entry): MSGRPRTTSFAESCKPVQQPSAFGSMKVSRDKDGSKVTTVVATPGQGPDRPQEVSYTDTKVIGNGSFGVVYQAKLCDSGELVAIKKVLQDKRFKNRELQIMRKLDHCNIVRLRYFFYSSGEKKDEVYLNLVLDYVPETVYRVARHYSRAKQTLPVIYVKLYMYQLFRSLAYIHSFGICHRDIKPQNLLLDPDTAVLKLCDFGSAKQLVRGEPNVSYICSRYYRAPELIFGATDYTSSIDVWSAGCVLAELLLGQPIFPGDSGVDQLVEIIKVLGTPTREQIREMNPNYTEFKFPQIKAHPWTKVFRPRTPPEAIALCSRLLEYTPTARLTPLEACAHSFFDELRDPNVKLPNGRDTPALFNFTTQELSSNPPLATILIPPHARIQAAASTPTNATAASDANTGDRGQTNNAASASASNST
GSK3α(h), sequence (P49840 whole entry): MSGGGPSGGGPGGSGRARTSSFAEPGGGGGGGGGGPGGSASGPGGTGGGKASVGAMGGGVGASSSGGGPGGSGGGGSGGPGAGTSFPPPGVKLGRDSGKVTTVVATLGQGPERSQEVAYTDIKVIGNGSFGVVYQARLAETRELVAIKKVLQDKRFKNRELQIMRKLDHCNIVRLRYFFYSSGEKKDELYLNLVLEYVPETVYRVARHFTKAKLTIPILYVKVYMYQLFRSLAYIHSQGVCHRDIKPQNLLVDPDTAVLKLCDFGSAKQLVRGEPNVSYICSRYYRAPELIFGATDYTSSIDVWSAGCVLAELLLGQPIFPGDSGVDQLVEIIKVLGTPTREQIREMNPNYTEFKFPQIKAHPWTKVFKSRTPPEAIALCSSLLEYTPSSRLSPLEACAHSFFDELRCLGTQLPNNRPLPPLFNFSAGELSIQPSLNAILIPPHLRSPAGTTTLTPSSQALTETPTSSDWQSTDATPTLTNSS

Compound	IC50 (GCN2 [1])	IC50 (GSK3α(h))	IC50 (GCN2 [2])	IC50 (GSK3β(h))
CCOc1ccc(-n2nnc3cnc(N[C@@H]4CC[C@@H](C(=O)NCC5CCN(C)CC5)C4)nc32)cc1 [A249, (1R,3R)-3-[3-(4-ethoxy-phenyl)-3H-[1,2,3]triazolo[4,5-d]pyrimidin-5-ylamino]-cycloentanecarboxyic acid (1-methyl-piperidin-4-ylmethyl)-amide]	1000 to 5000 nM	< 1000 nM	< 1000 nM	< 1000 nM
Cc1ncc2cc(-n3nnc4cnc(N[C@@H]5CC[C@@H](C(N)=O)C5)nc43)ccc2n1 [A184, (1R,3R)-3-[3-(2-methyl-quinazolin-6-yl)-3H-[1,2,3]triazolo[4,5-d]pyrimidin-5-ylamino]-cyclopentanecarboxylic acid amide]	1000 to 5000 nM	< 1000 nM	< 1000 nM	< 1000 nM
Cc1ccc2cc(-n3nnc4cnc(N[C@@H]5CC[C@@H](C(=O)NCCO)C5)nc43)ccc2n1 [A245, (1R,3R)-3-[3-(2-methyl-quinolin-6-yl)-3H-[1,2,3]triazolo[4,5-d]pyrimidin-5-ylamino]-cyclopentanecarboxylic acid (2-hydroxy-ethyl)-amide]	< 1000 nM	< 1000 nM	< 1000 nM	< 1000 nM
CCOc1ccc(-n2nnc3cnc(N[C@@H]4CC[C@@H](C(=O)NN)C4)nc32)cc1 [A282, (1R,3R)-3-[3-(4-ethoxy-phenyl)-3H-[1,2,3]triazolo[4,5-d]pyrimidin-5-ylamino]-cyclopentanecarboxylic acid hydrazide]	1000 to 5000 nM	< 1000 nM	< 1000 nM	< 1000 nM
COCCn1cc(-c2ccc(-n3nnc4cnc(N[C@@H]5CC[C@@H](C(N)=O)C5)nc43)cc2C)cn1 [A230, (1R,3R)-3-(3-{4-[1-(2-methoxy-ethyl)-1H-pyrazol-4-yl]-3-methyl-phenyl}-3H-[1,2,3]triazolo[4,5-d]pyrimidin-5-ylamino)-cyclopentanecarboxylic acid amide]	1000 to 5000 nM	< 1000 nM	< 1000 nM	< 1000 nM
COc1ccc(-n2nnc3cnc(N[C@@H]4C=C[C@@H](C(N)=O)C4)nc32)cc1 [A273, (1S,4S)-4-[3-(4-Methoxy-phenyl)-3H-[1,2,3]triazolo[4,5-d]pyrimidin-5-ylamino]-cyclopent-2-enecarboxylic acid amide]	5000 to 10000 nM	< 1000 nM	< 1000 nM	< 1000 nM
CCOc1ccc(-n2nnc3cnc(N[C@@H]4CC[C@@H](C(N)=O)C4)nc32)cc1F [A157, (1R,3R)-3-[3-(4-ethoxy-3-fluoro-phenyl)-3H-[1,2,3]triazolo[4,5-d]pyrimidin-5-ylamino]-cyclopentanecarboxylic acid amide]	1000 to 5000 nM	< 1000 nM	< 1000 nM	< 1000 nM
O[C@@H]1CC[C@@H](Nc2ncc3nnn(-c4ccc5ncccc5c4)c3n2)C1 [A204, (1R,3R)-3-(3-quinolin-6-yl-3H-[1,2,3]triazolo[4,5-d]pyrimidin-5-ylamino)-cyclopentanol]	1000 to 5000 nM	< 1000 nM	< 1000 nM	< 1000 nM
NC(=O)[C@@H]1CC[C@@H](Nc2ncc3nnn(-c4ccc(OC[C@H](O)C(F)(F)F)cc4)c3n2)C1 [A151, (1R,3R)-3-{3-[4-((S)-3,3,3-trifluoro-2-hydroxy-propoxy)-phenyl]-3H-[1,2,3]triazolo[4,5-d]pyrimidin-5-ylamino}-cyclopentanecarboxylic acid amide]	1000 to 5000 nM	< 1000 nM	< 1000 nM	< 1000 nM
CCOCCn1cc(-c2ccc(-n3nnc4cnc(N[C@@H]5CC[C@@H](C(=O)NCCO)C5)nc43)cc2)cn1 [A226, (1R,3R)-3-(3-{4-[1-(2-ethoxy-ethyl)-1H-pyrazol-4-yl]-phenyl}-3H-[1,2,3]triazolo[4,5-d]pyrimidin-5-ylamino)-cyclopentanecarboxylic acid (2-hydroxy-ethyl)-amide]	1000 to 5000 nM	< 1000 nM	< 1000 nM	< 1000 nM
COCCn1cc(-c2ccc(-n3nnc4cnc(N[C@@H]5CC[C@@H](O)C5)nc43)cc2)cn1 [A212, (1R,3R)-3-(3-{4-[1-(2-methoxy-ethyl)-1H-pyrazol-4-yl]-phenyl}-3H-[1,2,3]triazolo[4,5-d]pyrimidin-5-ylamino)-cyclopentanol]	1000 to 5000 nM	< 1000 nM	< 1000 nM	< 1000 nM
CCOc1ccc(-n2nnc3cnc(N[C@@H]4CC[C@@H](c5nnc(N)o5)C4)nc32)cc1 [A283, [(1R,3R)-3-(5-amino-[1,3,4]oxadiazol-2-yl)-cyclopentyl]-[3-(4-ethoxy-phenyl)-3H-[1,2,3]triazolo[4,5-d]pyrimidin-5-yl]-amine]	–	< 1000 nM	< 1000 nM	1000 to 5000 nM
N#CCCn1cc(-c2ccc(-n3nnc4cnc(N[C@@H]5CC[C@@H](C(N)=O)C5)nc43)cc2)cn1 [A217, (1R,3R)-3-(3-{4-[1-(2-cyano-ethyl)-1H-pyrazol-4-yl]-phenyl}-3H-[1,2,3]triazolo[4,5-d]pyrimidin-5-ylamino)-cyclopentanecarboxylic acid amide]	–	< 1000 nM	< 1000 nM	< 1000 nM
COCCn1cc(-n2nnc3cnc(N[C@@H]4CC[C@@H](C(N)=O)C4)nc32)cn1 [A159, (1R,3R)-3-{3-[1-(2-methoxy-ethyl)-1H-pyrazol-4-yl]-3H-[1,2,3]triazolo[4,5-d]-pyrimidin-5-ylamino}-cyclopentanecarboxylic acid amide]	–	< 1000 nM	< 1000 nM	< 1000 nM
COCCn1cc(-c2cccc(-n3nnc4cnc(N[C@@H]5CC[C@@H](C(N)=O)C5)nc43)c2)cn1 [A222, (1R,3R)-3-(3-{3-[1-(2-methoxy-ethyl)-1H-pyrazol-4-yl]-phenyl}-3H-[1,2,3]triazolo[4,5-d]pyrimidin-5-ylamino)-cyclopentanecarboxylic acid amide]	–	< 1000 nM	< 1000 nM	< 1000 nM
CC(C)(O)Cn1cc(-c2ccc(-n3nnc4cnc(N[C@@H]5CC[C@@H](C(N)=O)C5)nc43)cc2)cn1 [A233, (1R,3R)-3-(3-{4-[1-(2-hydroxy-2-methyl-propyl)-1H-pyrazol-4-yl]-phenyl}-3H-[1,2,3]triazolo[4,5-d]pyrimidin-5-ylamino)-cyclopentanecarboxylic acid amide]	–	< 1000 nM	< 1000 nM	< 1000 nM
CC(C)(O)c1ccc(-n2nnc3cnc(N[C@@H]4CC[C@@H](C(N)=O)C4)nc32)cc1 [A289, (1R,3R)-3-{3-[4-(1-hydroxy-1-methyl-ethyl)-phenyl]-3H-[1,2,3]triazolo[4,5-d]pyrimidin-5-ylamino}-cyclopentanecarboxylic acid amide]	–	< 1000 nM	< 1000 nM	< 1000 nM
NC(=O)[C@@H]1CC[C@@H](Nc2ncc3nnn(-c4ccc(OCC5CCNCC5)cc4)c3n2)C1 [A279, (1R,3R)-3-{3-[4-(piperidin-4-ylmethoxy)-phenyl]-3H-[1,2,3]triazolo[4,5-d]pyrimidin-5-ylamino}-cyclopentanecarboxylic acid amide]	–	< 1000 nM	< 1000 nM	< 1000 nM
CCOCCn1cc(-c2ccc(-n3nnc4cnc(N[C@@H]5CC[C@@H](C(N)=O)C5)nc43)cn2)cn1 [A229, (1R,3R)-3-(3-{6-[1-(2-ethoxy-ethyl)-1H-pyrazol-4-yl]-pyridin-3-yl}-3H-[1,2,3]triazolo[4,5-d]pyrimidin-5-ylamino)-cyclopentanecarboxylic acid amide]	–	< 1000 nM	< 1000 nM	< 1000 nM
NC(=O)[C@@H]1CC[C@@H](Nc2ncc3nnn(-c4ccc(-c5cnn(CCn6ncccc6=O)c5)cc4)c3n2)C1 [A237, (1R,3R)-3-[3-(4-{1-[2-(6-oxo-6H-pyridazin-1-yl)-ethyl]-1H-pyrazol-4-yl}-phenyl)-3H-[1,2,3]triazolo[4,5-d]pyrimidin-5-ylamino]-cyclopentanecarboxylic acid amide]	–	< 1000 nM	< 1000 nM	< 1000 nM
COc1ccc2cc(-n3nnc4cnc(N[C@@H]5CC[C@@H](C(N)=O)C5)nc43)ccc2n1 [A181, (1R,3R)-3-[3-(2-methoxy-quinolin-6-yl)-3H-[1,2,3]triazolo[4,5-d]pyrimidin-5-ylamino]-cyclopentanecarboxylic acid amide]	–	< 1000 nM	< 1000 nM	< 1000 nM
COc1ccc(-n2nnc3cnc(N[C@H]4C[C@H](C(N)=O)C4)nc32)cc1 [A145, (trans)-3-[3-(4-methoxy-phenyl)-3H-[1,2,3]triazolo[4,5-d]pyrimidin-5-ylamino]-cyclobutanecarboxylic acid amide]	–	< 1000 nM	< 1000 nM	< 1000 nM
